Test results published in US20250052016A1, “ARTIFICIAL TURF COMPRISING ANTIMICROBIAL POLYURETHANE BACKING” (Synthetic Turf Resources (STR), priority 2022, published 2025).

Legend:
E. coli = conditions: added in the polyurethane reaction mixture in amounts of 0.1 wt % to 0.5 wt %
S. aureus = conditions: added in the polyurethane reaction mixture in amounts of 0.1 wt % to 0.5 wt %

## zinc pyrithione
E. coli
  effectiveness against E. coli: particularly effective
S. aureus
  effectiveness against S. aureus: particularly effective
